Biological target: BRD4 protein (Homo sapiens, UniProt O60885)
Test: FRET assay, half maximal inhibitory concentration (IC50)
Format: binding
Conditions: BRD4 protein 50 nM, Biotin-H4KAc4 peptide 12.5 nM; List of Classification
Experimental: The compounds were biologically evaluated by determining the half maximal inhibitory concentration (IC50) by FRET assay. The IC50 is a measure of the effectiveness of a substance in inhibiting a specific biological or biochemical function.
For IC50 determinations, dose-response curves were generated, using a top concentration of 50 μM compound in 12.5% DMSO, followed by 10-fold dilutions in 12.5% DMSO. The composition of the reaction buffer was 50 mM HEPES, pH 7.5; 100 mM NaCl, 0.05% CHAPS.
The reaction was run in a final volume of 25 μl. The BRD4 protein (16.5 μl) was added to wells of 384w white Optiplates (Perkin Elmer) (50 nM final concentration) and 1 μl of compound dilution of DMSO control. Incubation time was 30 minutes at room temperature. In the next step, 2.5 μl Biotin-H4KAc4 peptide (Millipore 13-379) was added to the wells (final concentration was 12.5 nM), and the plates were incubated for 30 minutes at room temperature. Detection was performed by addition of 5 μl of a mix of mAb GST-XL665 (Cisbio 61GSTXLB) (10 nM final concentration) and Streptavidin Cryptate (Cisbio 610SAKLB) (2.4 nM final conc.) in reaction buffer with 0.4M KF and 0.05% BSA). The plates were incubated for one hour prior to reading on an Envision reader (Perkin Elmer)
Data was analyzed using GraphPad Prism, and IC50 data was obtained using non-linear regression curve fit using log(inhibitor) vs response (variable slope). All compounds were considered active although classified (according to the half maximal inhibitory concentration (IC50) by FRET assay) as follows: […]

Structure (SMILES) | IC50 [nM]
Cc1cc(=O)[nH]c2ccc(NC(=O)c3cc(S(=O)(=O)N4CCOCC4)ccc3N3CCCC3)nc12 [Compound-94, N-(8-methyl-6-oxo-5H-1,5-naphthyridin-2-yl)-5-morpholinosulfonyl-2-pyrrolidin-1-yl-benzamide] | > 10000
Cc1cc(O)nc2ccc(NC(=O)c3ccncc3N3CCCC3)cc12 [Compound-95, N-(2-hydroxy-4-methyl-6-quinolyl)-3-pyrrolidin-1-yl-pyridine-4-carboxamide] | < 200
Cc1cc(O)nc2ccc(NC(=O)c3cccnc3N3CCCC3)cc12 [Compound-96, N-(2-hydroxy-4-methyl-6-quinolyl)-2-pyrrolidin-1-yl-pyridine-3-carboxamide] | < 200
Cc1cc(O)nc2ccc(NC(=O)c3cccnc3N3CCCC3CN(C)C)cc12 (centres unmarked) [Compound-97, 2-[2-(dimethylaminomethyl)pyrrolidin-1-yl]-N-(2-hydroxy-4-methyl-6-quinolyl)pyridine-3-carboxamide] | < 200
COc1cc(O)nc2ccc(NC(=O)c3cc(CN4CCN(C)CC4)ccc3N3CCCC3)cc12 [Compound-98, N-(2-hydroxy-4-methoxy-6-quinolyl)-5-[(4-methylpiperazin-1-yl)methyl]-2-pyrrolidin-1-yl-benzamide] | < 200
O=C1CCc2cc(NC(=O)c3cc(S(=O)(=O)N4CCOCC4)ccc3N3CCCC3)ccc2N1 [Compound-100, 5-morpholinosulfonyl-N-(2-oxo-3,4-dihydro-1H-quinolin-6-yl)-2-pyrrolidin-1-yl-benzamide] | 500 to 1000
CC1CC(=O)Nc2ccc(NC(=O)c3cc(CN4CCOCC4)ccc3N3CCCC3)cc21 (centres unmarked) [Compound-101, N-(4-methyl-2-oxo-3,4-dihydro-1H-quinolin-6-yl)-5-(morpholinomethyl)-2-pyrrolidin-1-yl-benzamide] | < 200
CC1CC(=O)Nc2ccc(NC(=O)c3cc(S(=O)(=O)N(C)C)ccc3N3CCCC3)cc21 (centres unmarked) [Compound-102, 5-(dimethylsulfamoyl)-N-(4-methyl-2-oxo-3,4-dihydro-1H-quinolin-6-yl)-2-pyrrolidin-1-yl-benzamide] | < 200
CC1(C)CC(=O)Nc2ccc(NC(=O)c3cc(CN4CCOCC4)ccc3N3CCCC3)cc21 [Compound-103, N-(4,4-dimethyl-2-oxo-1,3-dihydroquinolin-6-yl)-5-(morpholinomethyl)-2-pyrrolidin-1-yl-benzamide] | 200 to 500
CN(C)S(=O)(=O)c1ccc(N2CCCC2)c(C(=O)Nc2ccc3c(c2)C(C)(C)CC(=O)N3)c1 [Compound-104, N-(4,4-dimethyl-2-oxo-1,3-dihydroquinolin-6-yl)-5-(dimethylsulfamoyl)-2-pyrrolidin-1-yl-benzamide] | < 200
Cc1cc(O)nc2ccc(NC(=O)c3cc(N)ccc3-n3cccn3)cc12 [Compound-105, 5-amino-N-(2-hydroxy-4-methyl-6-quinolyl)-2-pyrazol-1-yl-benzamide] | 500 to 1000
CN(C)S(=O)(=O)c1ccc(N2CCCC2)c(C(=O)Nc2cc(F)c3c(c2)C(C)(C)CC(=O)N3)c1 [Compound-106, 5-(dimethylsulfamoyl)-N-(8-fluoro-4,4-dimethyl-2-oxo-1,3-dihydroquinolin-6-yl)-2-pyrrolidin-1-yl-benzamide] | < 200
COc1cc(NC(=O)c2cc(S(=O)(=O)N(C)C)ccc2N2CCCC2)cc2c(C)cc(O)nc12 [Compound-108, 5-(dimethylsulfamoyl)-N-(2-hydroxy-8-methoxy-4-methyl-6-quinolyl)-2-pyrrolidin-1-yl-benzamide] | < 200
Cc1cc(O)nc2ccc(NC(=O)c3cc(C(F)(F)F)ccc3N3CCCC3)cc12 [Compound-109, N-(2-hydroxy-4-methyl-6-quinolyl)-2-pyrrolidin-1-yl-5-(trifluoromethyl)benzamide] | < 200
Cc1cc(O)nc2ccc(NC(=O)c3cc(S(=O)(=O)N4CCOCC4)ccc3N3CCC(O)C3)cc12 (centres unmarked) [Compound-110, N-(2-hydroxy-4-methyl-6-quinolyl)-2-(3-hydroxypyrrolidin-1-yl)-5-morpholino-sulfonyl-benzamide] | < 200
COC1CCN(c2ccc(S(=O)(=O)N3CCOCC3)cc2C(=O)Nc2ccc3nc(O)cc(C)c3c2)C1 (centres unmarked) [Compound-111, N-(2-hydroxy-4-methyl-6-quinolyl)-2-(3-methoxypyrrolidin-1-yl)-5-morpholino-sulfonyl-benzamide] | < 200
Cc1cc(O)nc2ccc(NC(=O)c3cc(CC#N)ccc3N3CCCC3)cc12 [Compound-112, 5-(cyanomethyl)-N-(4-methyl-2-oxo-1,2-dihydroquinolin-6-yl)-2-(pyrrolidin-1-yl)benzamide] | < 200
Cc1cc(O)nc2ccc(NC(=O)c3cc(C4(N5CCOCC5)CC4)ccc3N3CCCC3CN(C)C)cc12 (centres unmarked) [Compound-114, 2-(2-((dimethylamino)methyl)pyrrolidin-1-yl)-N-(2-hydroxy-4-methylquinolin-6-yl)-5-(1-morpholinocyclopropyl) benzamide] | < 200
Cc1cc(O)nc2ccc(NC(=O)c3cc(C#N)ncc3N3CCC(F)C3)cc12 (centres unmarked) [Compound-115, 2-cyano-5-(3-fluoropyrrolidin-1-yl)-N-(2-hydroxy-4-methylquinolin-6-yl) isonicotinamide] | < 200
Cc1cc(O)nc2ccc(NC(=O)c3cc(C#N)ncc3N3CCOCC3)cc12 [Compound-116, 2-cyano-N-(2-hydroxy-4-methylquinolin-6-yl)-5-morpholinoisonicotinamide] | < 200
Cc1cc(O)nc2ccc(NC(=O)c3cccnc3N3CCOCC3C)cc12 (centres unmarked) [Compound-120, N-(2-hydroxy-4-methyl-6-quinolyl)-2-(3-methylmorpholin-4-yl)pyridine-3-carboxamide] | < 200
Cc1cc(O)nc2ccc(NC(=O)c3cccnc3N3CCCC3CN(C)C)cc12 (centres unmarked) [Compound-121, 2-[2-(dimethylaminomethyl)pyrrolidin-1-yl]-N-(2-hydroxy-4-methyl-6-quinolyl)pyridine-3-carboxamide] | < 200
Cc1cc(O)nc2ccc(NC(=O)c3cnccc3N3CCOCC3)cc12 [Compound-123, N-(2-hydroxy-4-methyl-6-quinolyl)-4-morpholino-pyridine-3-carboxamide] | < 200
Cc1cc(O)nc2ccc(NC(=O)c3cnccc3N3CCCC3)cc12 [Compound-124, N-(2-hydroxy-4-methyl-6-quinolyl)-4-pyrrolidin-1-yl-pyridine-3-carboxamide] | 200 to 500
Cc1cc2nc(O)cc(C)c2cc1NC(=O)c1cccnc1N1CCOCC1 [Compound-125, N-(2-hydroxy-4,7-dimethyl-6-quinolyl)-2-morpholino-pyridine-3-carboxamide] | 500 to 1000
Cc1cc2nc(O)cc(C)c2cc1NC(=O)c1cccnc1N1CCC(F)C1 (centres unmarked) [Compound-126, 2-(3-fluoropyrrolidin-1-yl)-N-(2-hydroxy-4,7-dimethyl-6-quinolyl)pyridine-3-carboxamide] | 500 to 1000
Cc1cc2nc(O)cc(C)c2cc1NC(=O)c1cccnc1N1CCC(F)(F)C1 [Compound-127, 2-(3,3-difluoropyrrolidin-1-yl)-N-(2-hydroxy-4,7-dimethyl-6-quinolyl)pyridine-3-carboxamide] | 200 to 500
CC(C)c1cc(O)nc2ccc(NC(=O)c3cccnc3N3CCOCC3)cc12 [Compound-129] | 1000 to 10000
CN1Cc2cc(NC(=O)c3cccnc3N3CCOCC3)ccc2NC1=O [Compound-130, N-(3-methyl-2-oxo-1,4-dihydroquinazolin-6-yl)-2-morpholino-pyridine-3-carboxamide] | 1000 to 10000
